Measurements as given in patent US20110275569A1, “PROTEASES TARGETING AGENTS” (CONSIGLIO NAZIONALE DELLE RICERCHE, priority 2008, published 2011).
Where two headings read alike, the source gives them in different places.

What was measured:
[1] = test system: APEH in Caco-2 cells; assay: APEH activity in Caco-2 cells treated with peptides; type: cell-based, human; settings: 48 h, dose-dependent decrease
Protocol: (§1) The proteasome down-regulation via APEH inhibition has been investigated. On the basis of the hypothesis that APEH can be used as a target to indirectly control/modulate proteasome functions in tumoral cells, an in vitro approach using the SsCEI 2, SsCEI 3 and SsCEI 4 peptides in the Caco-2 (human colon carcinoma) cell line has been carried out. To this end, differentiated Caco-2 cells were treated with peptides or with a specific proteasome inhibitor (MG132), for 48 h. […] The results were compared to those obtained in the cell-free assays, where a purified proteasome fraction was used.

[2] = test system: proteasome in Caco-2 (human colon carcinoma) cells; assay: Proteasome activity in Caco-2 cells treated with peptides for 48 h; type: cell-based; settings: for proteasomal activity in Caco-2 cells (in words): differentiated Caco-2 cells
Protocol: as §1

[3] = test system: proteasome; assay: Cell-free proteasome assay with purified proteasome fraction; type: biochemical
Protocol: as §1

[4] = test system: Caco-2 cells; assay: Cytotoxicity by lactate dehydrogenase (LDH) activity in cell-culture media; type: cell-based, human; settings: up to the highest concentration used (200 μM)
[5] = test system: caspase-3; assay: Caspase-3 activity after peptide treatment of Caco-2 cells; type: cell-based, human
Source text: To elucidate the molecular mechanisms associated with the inhibition of the proteasome, the effects of treatments with the SsCEI 2 and SsCEI 4 peptides on the activation of caspases have been evaluated.

[6] = target: T1, porcine acylamino-acid-releasing enzyme (AARE or APEH) (Sus scrofa, UniProt P19205); assay: Inhibition of porcine acylamino-acid-releasing enzyme; type: biochemical; settings: for IC50: IC50 towards porcine acylamino-acid-releasing enzyme (AARE or APEH)
T1 sequence (P19205 1-732): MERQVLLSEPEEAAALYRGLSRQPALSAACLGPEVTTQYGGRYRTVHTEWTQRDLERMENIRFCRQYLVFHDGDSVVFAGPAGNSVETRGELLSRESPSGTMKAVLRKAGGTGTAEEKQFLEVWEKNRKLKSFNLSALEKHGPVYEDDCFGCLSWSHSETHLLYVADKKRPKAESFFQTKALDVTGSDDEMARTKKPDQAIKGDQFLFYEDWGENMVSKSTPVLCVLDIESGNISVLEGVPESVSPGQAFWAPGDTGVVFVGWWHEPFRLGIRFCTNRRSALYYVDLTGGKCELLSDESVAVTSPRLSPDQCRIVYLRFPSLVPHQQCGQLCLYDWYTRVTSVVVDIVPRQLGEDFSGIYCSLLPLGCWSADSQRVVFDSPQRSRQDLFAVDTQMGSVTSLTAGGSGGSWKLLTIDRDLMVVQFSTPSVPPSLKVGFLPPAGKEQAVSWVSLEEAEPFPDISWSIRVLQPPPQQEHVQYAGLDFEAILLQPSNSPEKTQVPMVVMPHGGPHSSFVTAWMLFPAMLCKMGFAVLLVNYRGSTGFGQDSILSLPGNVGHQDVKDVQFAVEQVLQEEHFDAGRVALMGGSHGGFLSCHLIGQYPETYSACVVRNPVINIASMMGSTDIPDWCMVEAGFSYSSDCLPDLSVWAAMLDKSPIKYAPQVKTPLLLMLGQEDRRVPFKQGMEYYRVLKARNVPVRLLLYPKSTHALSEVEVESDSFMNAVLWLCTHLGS
Protocol: The SsCEI 1 to 4 reported in the Example 1 were tested for ability to inhibit the activity of human acylamino-acid-releasing enzyme. Stock solutions (1 mM) of each lyophilized compounds were prepared in DMSO 100% and stored at 4° C. Inhibition effectiveness of each compound was determined by measuring enzyme activity both in the presence and absence of compounds. The activity of human acylamino-acid-releasing enzyme (AARE) was measured by using the chromogenic substrate N-acetyl-Ala-pNA (Bachem) (40 μM in DMSO 100%) as described above. […] Then, the substrate was added to the incubation mixture and the hydrolysis was performed for 20 min at 37° C. (FIG. 5). The data were fitted with the GraphPad Prism software. This analysis allowed the determination of IC50 values, which represent the concentrations at which the inhibition reached 50%. […] The IC50 values (See Table IV), obtained as average of 3-5 separate determinations, confirmed the utility of the compounds +of the present invention as effective AARE inhibitors.
The experiment described in example 7 has been performed using the porcine acylamino-acid-releasing enzyme. […] The efficiency of SsCEI 4 can be ascribed to the APEH preference for an alanine residue, with respect to the leucine, at the P1 site, assuming that the SsCEI-APEH association occurs in a substrate-like manner

## H-TILAEIKNINAD-NH2 [SsCEI 4, TILAEIKNINAD]
[1]
  residual APEH activity with respect to untreated cultures: up to 45%
[2]; Caco-2 cells, dose-dependent decrease
  residual proteasome activity with respect to untreated cultures: up to 45%
[2]
  proteasomal activity in Caco-2 cells (in words): markedly reduced proteasomal activity
[3]
  proteasome activity in cell-free systems: did not affect proteasome activity
[4]
  cytotoxic effects, LDH activity levels in cell-culture media: not associated with any cytotoxic effects
[5]
  caspase-3 activity: increased in a dose dependent manner
[6]
  IC50: 35 ± 0.8 µM
[6]; Lineweaver-Burk plot
  type of inhibition of porcine APEH: competitive inhibitor
[6]; porcine APEH, Lineweaver-Burk plot, read-out: Ki APEH
  Ki: 4 ± 0.8 µM

## H-TILLEIKNINAD-NH2 [SsCEI 2, TILLEIKNINAD]
[2]
  proteasomal activity in Caco-2 cells (in words): markedly reduced proteasomal activity
[4]
  cytotoxic effects, LDH activity levels in cell-culture media: not associated with any cytotoxic effects

## H-YAIDTILAEIKNINAD-NH2 [SsCEI 3, YAIDTILAEIKNINAD]
[2]
  proteasomal activity in Caco-2 cells (in words): unable to affect proteasome
[6]
  Ki: 20 ± 0.4 µM
  IC50: 20 ± 0.4 µM
